Results: patent US20150087722A1, “TREATMENT FOR BREAST TUMOR CELL METASTASIS” (China Medical University, priority 2012, published 2015)

Key:
[1] = system: ROS content in breast tumor cells MDA-MB-231; assay: intracellular reactive oxygen species method; type: cell-based, human
Protocol: In FIG. 12, the reactive oxygen species method was used to detect the effect of increased treatment doses of the compound II on the ROS content in breast tumor cells, and a photograph was taken at a 200× field under the fluorescence microscope. In the intracellular reactive oxygen species method, the cells were planted in a 24-well plate (5×10^4 cells/well). The next day after the cells were adhered to the wall, the cells were cultured in a serum free DMEM culture medium at an atmosphere of 5% CO2 in an incubator at 37° C. for 12 h. The compound II was added into the 1% FBS-DMEM culture medium, and the cells were cultured in the culture medium for 2 h. The cells were then washed with PBS. 100 ng/mL LPS was added to react with the cells, and then the cells were washed with PBS. Culture medium including 10 μM fluorescent probe (DCFH2-DA) was supplied and then the cells were cultured for 30 min at 37° C. The cells were washed with PBS for three times so as to remove the residual stain. Finally the cells were lysed using 0.25% Tritox-100. The absorbance was measured by a fluorescence spectrometer, where the excitation wavelength was set as 485±20 nm, and the […] was set as 530±25 nm.

[2] = system: cells stimulated by 10 ng/mL TNF-α; assay: wound scratching assay of cells stimulated by TNF-α; type: cell-based; conditions: 10 and 20 μM, 24 h
Protocol: In the wound scratching assay for observing cell migration, the cells MDA-MB-231 (3×10^5) were planted in a 12-well plate, and the next day the cells were washed with PBS twice. The original culture medium then was replaced by 1% FBS cell culture medium. The next day a space was scratched at the bottom of the well. The cell culture medium was removed and the cells were washed with PBS twice. 1% FBS cell culture medium and the compound II of different concentrations were added and photographs were taken after 0, 12, 24 and 36 h so as to observe migration of cells. After the reaction, the cells were fixed for 30 min using 75% ice alcohol. After the alcohol was completely volatilized, the cells were stained with Giemsa Stain. The migration number of cells was counted in three random fields (200×) under the microscope (Lin et al., 2008). […] After the breast tumor cells were treated for 0, 12, 24 and 36 h, the quantitative result of effect of the compound II on metastasis of breast tumor cells MDA-MD-231 was observed, and the data results were represented by mean±SD values, where n=3. FIG. 19 illustrates the effect of the compound II in different doses on migration of cells stimulated by 10 ng/mL TNF-α and detected by the wound scratching assay, where the cells were observed under a microscope. […]

[3] = system: tumor inoculated nude mice; assay: histopathological examination (H&E staining) of tumor inoculated nude mice; type: in vivo; conditions: 0.75 mg/Kg everyday, magnification 400×
Protocol: In the histopathological examination of tumor inoculated nude mice, the inoculated nude mice were examined through a histopathological H&E staining method. The tumor and internal organs were embedded in paraffin and sliced into slides having a thickness of […] by a slicer. Then after deparaffinizing, rehydrating and renaturating, the slide was washed with water twice and stained with Hematoxylin solution for 30-50 s. Then the slide was treated with 0.1% acetic acid-water and washed with water twice. At last the slide was stained with Eosin for 100 s and mounted with Histoclad.

How did the “increasing trend of reactive oxygen species” value ([1]; MDA-MB-231, with antioxidant NAC added at the same time) turn out when `COC1=C(OC)C(=O)C(C)=C(C)C1=O` [compound II] was run?
The value was “not obvious”.

What about the “content of reactive oxygen species” value ([1]; MDA-MB-231, with increasing treatment doses) of the same compound?
Its value is “increased accordingly”.

And the cell migration [2]?
The cell migration was “not obvious”.

And the “mitosis state of tumor cells” value [3]?
Its value is “low mitosis state”.
